One may read the Cmax as the peak of the concentration-time curve. A word on the AUC(0-t): it is exposure summed from dosing to a finite time, without extrapolation to infinity. Read a high AUC(0-t) as high exposure. What is called bioavailability is the share of a dose that reaches the circulation, judged against a reference dose that is usually intravenous. A low value points to poor availability.

Data set [1] in a line: Cmax in Sprague-Dawley rat at 3 mg/kg, po after 0.4 hrs. It is filed as ADME, organism-based. Also on record: dose 3 mg/kg, route oral. Conditions: in vivo.
Data set [2] in a line: Volume of distribution at steady state in Sprague-Dawley rat at 2 mg/kg, iv and 3 mg/kg, po. It is filed as ADME, organism-based. Conditions: in vivo, read-out: Vdss.
Data set [3] is described as follows: Cmax in Sprague-Dawley rat at 2 mg/kg, iv and 3 mg/kg, po. It is filed as ADME, organism-based. Conditions: in vivo.
A short description of data set [4]: AUClast in Sprague-Dawley rat at 2 mg/kg, iv and 3 mg/kg, po. The format is ADME, organism-based. As to conditions: plasma.
Data set [5] can be described thus: Oral bioavailability in Sprague-Dawley rat at 3 mg/kg. It is filed as ADME, organism-based. As to conditions: in vivo.
A short description of data set [6]: Ratio of drug level in brain to plasma in Sprague-Dawley rat at 3 mg/kg, po after 2 hrs. It is filed as ADME, organism-based. Also on record: dose 3 mg/kg, route oral. Conditions: read-out: BPR.
Data set [7] can be described thus: Drug uptake in Sprague-Dawley rat brain at 3 mg/kg, po after 2 hrs. It is filed as ADME, organism-based. Also on record: dose 3 mg/kg, route oral. As to conditions: read-out: Drug uptake.
For data set [8], the system named is Rattus norvegicus. As to the kind of experiment: Toxicity in rat assessed as reduction in core temperature at 0.3 mg/kg, ip. The format is organism-based. Also on record: dose 0.3 mg/kg, route intraperitoneal. As to conditions: in vivo.

In the case of `CC(C)(NC(=O)c1nn(C(C)(C)C)c2c1C[C@H]1C[C@@H]21)c1ccccc1`, in data set [1], the highest level (Cmax) was 33 ng/mL.

With `CC(C)(CO)NC(=O)c1nn(-c2ccc(F)cc2F)c2c1C[C@H]1C[C@@H]21`, the Vd in data set [2] worked out at 0.851 L/kg. The Cmax in data set [3] is 808 ng/mL. This compound also came in with an AUC(0-t) in data set [4] of 4480 ng·h/mL. The compound further showed a bioavailability in data set [5] of 35.9%. In data set [6], the Kp at 2 h was 0.356. Further, in data set [7], the concentration at 2 h came out at 623 ng/g.

With `CCCCCCC(C)(C)c1ccc([C@@H]2C[C@H](O)CC[C@H]2CCCO)c(O)c1` [CP-55940], the T in data set [8] was > 2 °C.

The values above are taken from ChEMBL document CHEMBL3351614, “Discovery of 1a,2,5,5a-tetrahydro-1H-2,3-diaza-cyclopropa[a]pentalen-4-carboxamides as potent and selective CB2 receptor agonists” (Bioorg Med Chem Lett, 2015).
